Calls of active or inactive are those of the source. The calls are words filed in the database; no cut-off is given here.
Assays:
[1] = Tmax in ICR mouse at 20 mg/kg, po by LC-MS/MS analysis; type: ADME, organism-based; settings: in vivo
[2] = Toxicity in BALB/c mouse xenografted with human MIA PaCa-2 cells harboring KRAS G12C mutant assessed as mortality at 50 mg/kg, po once a day measured for 16 days; type: organism-based; settings: in vivo, 384 h, time 16 day
[3] = MRT in ICR mouse at 20 mg/kg, po by LC-MS/MS analysis; type: ADME, organism-based; settings: in vivo
[4] = Cmax in ICR mouse at 20 mg/kg, po by LC-MS/MS analysis; type: ADME, organism-based; design: dose 20 mg/kg, route po; settings: in vivo
[5] = Half life in ICR mouse at 20 mg/kg, po by LC-MS/MS analysis; type: ADME, organism-based; settings: in vivo; for half-life: ICR
[6] = Toxicity in BALB/c mouse xenografted with human MIA PaCa-2 cells harboring KRAS G12C mutant assessed as change in body weight at 50 mg/kg, po once a day measured for 16 days; type: organism-based; settings: in vivo, 384 h, time 16 day
MIA PaCa-2 [7] = test: In vivo antitumor activity against human MIA PaCa-2 cells harboring KRAS G12C mutant xenografted in BALB/c mouse assessed as reduction in tumor volume at 50 mg/kg, po once a day measured for 16 days relative to control; type: functional; design: scale not given: the % may be the effect or the level left; settings: time 16 day
[8] = Inhibition of SOS1/KRAS G13D mutant protein-protein interaction in human DLD-1 cells assessed as ERK1/2 phosphorylation measured after 1 hr by homogeneous time-resolved fluorescence (HTRF) method; type: cell-based; settings: DLD-1, 1 h
[9] = AUC in ICR mouse at 20 mg/kg, po by LC-MS/MS analysis; type: ADME, organism-based; design: dose 20 mg/kg, route po; settings: in vivo
[10] = Elimination rate constant in ICR mouse at 20 mg/kg, po by LC-MS/MS analysis; type: ADME, organism-based; settings: in vivo; for k el: ICR
[11] = Cmax in ICR mouse at 10 mg/kg, po by LC-MS/MS analysis; type: ADME, organism-based; design: dose 10 mg/kg, route po; settings: in vivo
[12] = Metabolic stability in mouse liver microsomes assessed as intrinsic clearance in presence of NADPH measured upto 60 mins by LC-MS/MS analysis; type: ADME, Microsome; settings: read-out: CLH
[13] = Metabolic stability in rat liver microsomes assessed as intrinsic clearance in presence of NADPH measured upto 60 mins by LC-MS/MS analysis; type: ADME, Microsome; settings: read-out: CLH
[14] = Elimination rate constant in ICR mouse at 10 mg/kg, po by LC-MS/MS analysis; type: ADME, organism-based; settings: in vivo
[15] = Half life in ICR mouse at 10 mg/kg, po by LC-MS/MS analysis; type: ADME, organism-based; settings: in vivo
[16] = Metabolic stability in mouse liver microsomes assessed as half life in presence of NADPH by LC-MS/MS analysis; type: ADME, Microsome
[17] = MRT in ICR mouse at 10 mg/kg, po by LC-MS/MS analysis; type: ADME, organism-based; settings: in vivo
[18] = Metabolic stability in rat liver microsomes assessed as half life in presence of NADPH by LC-MS/MS analysis; type: ADME, Microsome
[19] = Tmax in ICR mouse at 10 mg/kg, po by LC-MS/MS analysis; type: ADME, organism-based; settings: in vivo
[20] = AUC in ICR mouse at 10 mg/kg, po by LC-MS/MS analysis; type: ADME, organism-based; design: dose 10 mg/kg, route po; settings: in vivo
SOS1-KRAS = SOS1-KRAS (Homo sapiens, UniProt Q07889); test: Inhibition of human recombinant SOS1 (residue 564-1049)/KRAS G12C mutant protein-protein interaction at incubated for 25 degC for 60 mins by homogeneous time-resolved fluorescence (HTRF) method
NCI-H358 = test: Antiproliferative activity against human NCI-H358 cells harboring SOS1/KRAS G12C mutant measured after 24 hrs by AlamarBlue based 3-D proliferation assay; type: functional, cell-based
MIA PaCa-2 [21] = test: In vivo antitumor activity against human MIA PaCa-2 cells harboring KRAS G12C mutant xenografted in BALB/c mouse assessed as tumor growth inhibition at 50 mg/kg, po once a day measured for 16 days relative to control; type: functional; settings: MIA PaCa-2, 384 h, time 16 day, read-out: TGI
MIA PaCa-2 [22] = test: Antiproliferative activity against human MIA PaCa-2 cells assessed as cell viability measured after 72 hrs by MTT assay; type: functional, cell-based; settings: MIA PaCa-2, 72 h
MIA PaCa-2 [23] = test: In vivo antitumor activity against human MIA PaCa-2 cells harboring KRAS G12C mutant xenografted in BALB/c mouse assessed as reduction in tumor volume at 50 mg/kg, po once a day measured for 16 days relative to BI-3406; type: functional; design: scale not given: the % may be the effect or the level left; settings: time 16 day

SOS1-KRAS, sequence (Q07889 whole entry, looked up, stated change not applied): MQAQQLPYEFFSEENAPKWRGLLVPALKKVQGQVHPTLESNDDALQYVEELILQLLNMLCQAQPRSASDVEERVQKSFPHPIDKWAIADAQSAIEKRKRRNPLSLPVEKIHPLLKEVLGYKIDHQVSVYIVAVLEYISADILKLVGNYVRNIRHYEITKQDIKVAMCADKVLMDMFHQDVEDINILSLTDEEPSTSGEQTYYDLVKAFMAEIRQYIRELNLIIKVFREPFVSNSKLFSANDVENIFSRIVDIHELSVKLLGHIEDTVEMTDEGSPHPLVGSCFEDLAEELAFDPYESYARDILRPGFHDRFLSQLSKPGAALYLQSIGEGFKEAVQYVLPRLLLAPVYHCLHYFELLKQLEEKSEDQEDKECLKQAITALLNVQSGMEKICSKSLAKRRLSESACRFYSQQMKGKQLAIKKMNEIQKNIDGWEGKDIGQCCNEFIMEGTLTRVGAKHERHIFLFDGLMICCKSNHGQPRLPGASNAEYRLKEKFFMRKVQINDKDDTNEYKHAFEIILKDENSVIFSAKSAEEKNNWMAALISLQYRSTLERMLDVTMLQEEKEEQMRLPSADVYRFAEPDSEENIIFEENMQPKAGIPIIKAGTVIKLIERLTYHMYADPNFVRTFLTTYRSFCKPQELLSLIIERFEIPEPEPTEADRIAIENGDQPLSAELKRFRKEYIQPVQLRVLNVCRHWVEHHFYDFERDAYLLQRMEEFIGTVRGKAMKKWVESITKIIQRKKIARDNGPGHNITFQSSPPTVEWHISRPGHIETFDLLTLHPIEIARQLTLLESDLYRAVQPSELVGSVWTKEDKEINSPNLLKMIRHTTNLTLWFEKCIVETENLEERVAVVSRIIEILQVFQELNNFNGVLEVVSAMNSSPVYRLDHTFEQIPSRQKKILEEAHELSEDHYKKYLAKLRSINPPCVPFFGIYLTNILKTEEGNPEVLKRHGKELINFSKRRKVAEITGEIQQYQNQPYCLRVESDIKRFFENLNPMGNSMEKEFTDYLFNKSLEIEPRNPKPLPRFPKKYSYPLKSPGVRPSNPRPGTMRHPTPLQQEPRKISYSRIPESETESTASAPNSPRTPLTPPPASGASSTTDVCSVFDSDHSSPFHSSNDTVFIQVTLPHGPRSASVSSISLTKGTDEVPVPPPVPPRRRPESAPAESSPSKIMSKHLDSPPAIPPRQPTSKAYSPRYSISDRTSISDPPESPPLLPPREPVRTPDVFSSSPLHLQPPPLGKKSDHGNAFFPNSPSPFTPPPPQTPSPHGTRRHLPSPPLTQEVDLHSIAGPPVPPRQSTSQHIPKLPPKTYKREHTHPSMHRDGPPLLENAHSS

| SMILES | Tmax [1] | Activity [2] | MRT [3] | Cmax [4] | half-life [5] | Activity [6] | Activity (MIA PaCa-2 [7]) | IC50 [8] | AUC [9] | k el [10] | Cmax [11] | CLint scaled [12] | CLint scaled [13] | k el [14] | half-life [15] | MRT [17] | Tmax [19] | AUC [20] | IC50 (SOS1-KRAS) | Activity (NCI-H358) | other results |
| --- | --- | --- | --- | --- | --- | --- | --- | --- | --- | --- | --- | --- | --- | --- | --- | --- | --- | --- | --- | --- | --- |
| Cc1nc(N[C@H](C)c2cccc(C(F)F)c2F)c2cc3c(cc2n1)OC[C@H]1CN(C(=O)[C@@H]2C[C@H]2F)CCN31 | 5.67 h | Non-Toxic | 4.08 h | 651 ng/mL | 6.67 h | Non-Toxic | 49% | 6 nM | 4010 ng·h/mL | 2.78e-05 s⁻¹ |  |  |  |  |  |  |  |  |  |  |  |
| COc1cc2nc(C)nc(N[C@H](C)c3cc(N)cc(C(F)(F)F)c3)c2cc1O[C@H]1CCOC1 | 0.9 h | Non-Toxic | 2.98 h | 1050 ng/mL | 4.48 h | Non-Toxic | 42% | 30.7 nM | 4680 ng·h/mL | 5.83e-05 s⁻¹ | 241 ng/mL | 504 mL/min/kg | 69.5 mL/min/kg | 0.000147 s⁻¹ | 1.3 h | 1.7 h | 0.5 h | 550 ng·h/mL |  |  | half-life [16]: 0.18 h; half-life [18]: 0.602 h |
| CC(=O)N1CCN2c3cc4c(N[C@H](C)c5cc(N)cc(C(F)(F)F)c5)nc(C)nc4cc3OC[C@H]2C1 |  |  |  |  |  |  |  | 4.7 nM |  |  | 8.89 ng/mL |  |  | 0.000142 s⁻¹ | 1.49 h | 10.1 h | 1 h | 53.5 ng·h/mL | 4.3 nM | Active |  |
| CC(=O)N1CCN2c3cc4c(N[C@H](C)c5cccc(C(F)F)c5F)nc(C)nc4cc3OC[C@H]2C1 | 0.25 h |  | 1.93 h | 270 ng/mL | 2.14 h | Non-Toxic |  | 2.4 nM | 601 ng·h/mL | 0.000119 s⁻¹ | 63.4 ng/mL |  |  | 0.000103 s⁻¹ | 1.87 h | 1.9 h | 0.33 h | 148 ng·h/mL | 6.3 nM | Active | inhibition in vivo at 50 mg/kg (MIA PaCa-2 [21]): 42% |
| Cc1nc(N[C@H](C)c2cccc(C(F)F)c2F)c2cc3c(cc2n1)OC[C@H]1CN(C(=O)[C@H]2CCOC2)CCN31 | 3.67 h | Non-Toxic | 4.19 h | 1550 ng/mL |  | Non-Toxic | 49% | 5 nM | 9900 ng·h/mL |  |  | 209 mL/min/kg | 37.2 mL/min/kg |  |  |  |  |  |  |  | IC50 (MIA PaCa-2 [22]): 178 nM; half-life [16]: 0.437 h; Activity (MIA PaCa-2 [23]): 71%; t1/2 ([5]; po, 20 mg/kg): 11.4 h; half-life [18]: 1.12 h; Kel ([10]; po, 20 mg/kg): 0.25 h⁻¹ |
| CC(=O)N1CCN2c3cc4c(N[C@H](C)c5cccc(C(F)(F)CO)c5F)nc(C)nc4cc3OC[C@H]2C1 |  |  |  |  |  |  |  | 1.4 nM |  |  |  |  |  |  |  |  |  |  | 2.7 nM | Active |  |
